The target of this assay is T1, CYP2C19 (Homo sapiens, UniProt P33261).
T1 construct: tissue Corning 452117; host or cells: human liver microsomes
Briefly: CYP450 inhibition assay in human liver microsomes, CYP2C19. The settings on record: HLM 0.1 mg/mL; probe S-mephenytoin 20 µM; 20 min. The assay is classed as in vitro ADME. On the procedure:
To evaluate the reliability and reproducibility of the CYP450 inhibition assay, we measured the inhibitory effects of selected positive control inhibitors of each CYP450 enzyme in human liver microsomes (HLM, Table 1, Figure 2). The potency of inhibition was estimated by observing the alteration in concentration of metabolites of CYP450 substrates (Table 1).
Reagents preparation. […] The stock solution of PDQ (10 mM) was prepared with methanol and further diluted to the range of 3 µM to 3 mM with methanol to ensure that the solvent of different PDQ samples contained the same amount (1%) of methanol.
The stock solutions of the positive control inhibitors and the probe substrates of CYP450 enzymes were prepared in methanol.
CYP450 inhibition assay. […] The assay was conducted in polypropylene 96-well plates (2.2 mL/well, Apricot Designs Inc., Covina, CA, USA).
The total volume of the reaction is 200 μL. […] The substrates and analytes were analyzed by LC-MS/MS (API4000, Applied Biosystems, Singapore; HPLC, Shimadzu, Japan). […]
Data analysis. […] The IC50 was determined by fitting the dependence of the relative remaining activity (y = Vi/V0) to the following three-parameter equation (Equation (1)). […]
On the technique in general: Liver microsomes are a subcellular fraction often used to study metabolism.

The structures appear in SMILES notation.

T1 sequence (P33261 whole entry): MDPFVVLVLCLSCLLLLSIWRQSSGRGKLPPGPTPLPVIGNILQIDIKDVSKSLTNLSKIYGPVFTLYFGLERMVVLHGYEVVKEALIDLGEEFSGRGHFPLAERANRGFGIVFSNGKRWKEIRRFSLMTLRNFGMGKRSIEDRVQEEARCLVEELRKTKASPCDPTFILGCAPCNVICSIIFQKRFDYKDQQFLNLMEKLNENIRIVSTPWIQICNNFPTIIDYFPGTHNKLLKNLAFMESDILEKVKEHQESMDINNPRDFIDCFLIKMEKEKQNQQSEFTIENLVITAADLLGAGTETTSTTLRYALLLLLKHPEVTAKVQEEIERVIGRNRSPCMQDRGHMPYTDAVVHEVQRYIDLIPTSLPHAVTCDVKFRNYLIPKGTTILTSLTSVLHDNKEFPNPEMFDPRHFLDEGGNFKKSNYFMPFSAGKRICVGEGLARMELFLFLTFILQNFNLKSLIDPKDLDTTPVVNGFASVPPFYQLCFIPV

As a reminder, the IC50 is the concentration that gives 50% inhibition. A higher IC50 goes with weaker potency in that assay. On to `CC(C)(O)[C@@H]1CC[C@@](C)([C@H]2CC[C@]3(C)[C@@H]2[C@H](O)C[C@@H]2[C@@]4(C)CC[C@H](O)C(C)(C)[C@@H]4CC[C@]23C)O1` [PDQ, (20S,24S)-dammar-20,24-epoxy-3β, 12β, 25-triol], for which the concentration for half-maximal inhibition (IC50) was found to be 0.698 µM.

Source of the values: article PMC11173382, “In Vitro Investigations into the Potential Drug Interactions of Pseudoginsenoside DQ Mediated by Cytochrome P450 and Human Drug Transporters” (Molecules, 2024).
